Data reported in PubChem BioAssay AID720632 (Broad Institute, 2013).
Calls of active or inactive are those of the source. No rule for the calls is given here.

What follows are compounds tested against Caspase-6 (Homo sapiens) (UniProt P55212) (assay: human caspase-6 inhibitors, dose response, biochemical, VEID-R110 fluorescence, cherry-pick (AID 720632)). Conditions: caspase-6, VEID-R110 fluorogenic substrate; at 8 µM (top of the series).
Sequence of Caspase-6 (Homo sapiens) (P55212 24-179 limits assumed): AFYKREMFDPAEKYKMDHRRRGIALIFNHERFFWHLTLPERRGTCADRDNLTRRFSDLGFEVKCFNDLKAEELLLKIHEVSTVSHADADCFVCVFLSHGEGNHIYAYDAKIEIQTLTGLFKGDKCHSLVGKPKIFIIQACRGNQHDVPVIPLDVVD
Sequence of Caspase-6 (Homo sapiens) (P55212 194-293 limits assumed): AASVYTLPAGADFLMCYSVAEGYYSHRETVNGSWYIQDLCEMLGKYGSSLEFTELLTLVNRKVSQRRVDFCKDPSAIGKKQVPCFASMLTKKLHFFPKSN

Activity change, negative = inhibition, inactive:
O=C(NC[C@@H]1CC[C@@H]2[C@@H](CN2S(=O)(=O)c2ccccc2[N+](=O)[O-])O1)C1CCOCC1, CN(C)CCCN(C(=O)c1ccc([N+](=O)[O-])s1)c1nc2cc3c(cc2s1)OCCO3

Same assay, conditions: caspase-6, VEID-R110 fluorogenic substrate; at 26 µM (top of the series)

Activity change, negative = inhibition, inactive:
COCCNc1nc(-c2ccc(OC)cc2)c(-c2ccc(OC)cc2)s1, CC(=O)N1CCc2c(sc(NC(=O)Cc3ccccc3)c2C(N)=O)C1, CCCC(=O)n1nc(-c2cccnc2)nc1NCc1ccc(OC)cc1, COc1cccc(S(=O)(=O)N2C[C@@H]3N[C@H](C2)C3c2ccc(-c3ccccc3C)cc2)c1 (stereo partly specified), O=C(Oc1ccc(Nc2ncnc3ccccc23)cc1)c1cccnc1, O=C(Nc1nc2ccc([N+](=O)[O-])cc2s1)c1ccncc1, CN1CCN(c2cc(CNC[C@H]3O[C@@H](n4cnc5c(=O)[nH]c(N)nc54)[C@H](O)[C@@H]3O)ccc2F)CC1, Cc1ccccc1NC(=O)C1CCCN(S(=O)(=O)c2cnc[nH]2)C1 (stereo unspecified), CCc1ccc(NS(=O)(=O)c2cc(OC)ccc2OC)cc1, CC1CCCC(C)N1C(=O)C1CCCCC1 (stereo unspecified), COc1cc(OC)c(-c2nn3c(C4CCCCC4)nnc3s2)cc1OC, O=[N+]([O-])c1ccc(NCCN2CCOCC2)c([N+](=O)[O-])c1, COCC(=O)Nc1ccc2c(c1)OC[C@@H](C)N(CC1CC1)C[C@H](C)[C@H](OC)CN(C)C2=O, COCC(=O)Nc1ccc2c(c1)OC[C@H](C)N(CC1CC1)C[C@@H](C)[C@@H](OC)CN(C)C2=O, COC(=O)[C@@H]1[C@@H](CO)[C@@H]2Cn3c(cccc3=O)[C@@H]2N1CC1CCOCC1, COc1ccccc1S(=O)(=O)N[C@@H]1C=C[C@@H](CC(=O)N2CCOCC2)O[C@H]1CO, CN1CC(=O)N2Cc3[nH]c4ccccc4c3C[C@H]2C1=O, CO[C@H]1CN(C)C(=O)c2ccc(NC(=O)C3CC3)cc2OC[C@H](C)N(Cc2cccc(F)c2)C[C@H]1C, Nc1ccccc1Sc1ccc(C(=O)c2ccccc2C(=O)O)cc1[N+](=O)[O-], O=C(COc1ccc(S(=O)(=O)NC2CCCCC2)cc1Cl)NCc1ccc2c(c1)OCO2, COc1ccc(C(=O)Nc2ccc3ccccc3c2)c(OC)c1, NCC[C@@H]1CC[C@H](NC(=O)c2ccccc2F)[C@@H](CO)O1, COc1ccc(-n2c(NNC(C)=O)nc3sc4c(c3c2=O)CCCC4)cc1, CCCC(=O)Nc1ccc2c(c1)OC[C@@H](C)N(Cc1ccc(F)cc1)C[C@H](C)[C@@H](OC)CN(C)C2=O, CCCN1C[C@H](C)[C@@H](OC)CN(C)C(=O)c2ccc(NC(=O)CC)cc2OC[C@@H]1C, CN(C)CCNC(=O)c1cccc(S(=O)(=O)Nc2ccccc2F)c1, C/C=C/c1ccc([C@@H]2[C@H](CO)N(C(=O)C3CCCC3)C23CN(S(C)(=O)=O)C3)cc1, O=C(COC(=O)c1ccc([N+](=O)[O-])o1)Nc1ccc(N2CCOCC2)cc1, CC(C)(C)N(Cc1ccccc1)C(=O)COC(=O)c1ccc([N+](=O)[O-])o1, C/C(=N\NC(=O)c1ccccc1O)C1CC1, C[C@@H](NC(=O)C[C@@H]1CC[C@@H](NC(=O)CN2CCOCC2)[C@@H](CO)O1)c1ccccc1, CCCC(=O)Nc1ccc2c(c1)OC[C@H](C)NC[C@H](C)[C@H](OC)CN(C)C2=O, CCOC(=O)C1CCCN(S(=O)(=O)c2nc3nc(C)cc(C)n3n2)C1 (stereo unspecified), COc1ccc(C(=O)N2CCN(CCCc3ccccc3)CC2)cc1OC, CN(CC(=O)Nc1ccccc1Cl)C(=O)COC(=O)c1cccs1, O=C(Cn1cncn1)NCCCc1ccccc1, CCOC(=O)N1CCN(C(=O)CN(C)S(=O)(=O)c2ccc3c(c2)c(=O)n(C)c(=O)n3C)CC1, CO[C@H]1CN(C)C(=O)c2ccc(NC(=O)C3CC3)cc2OC[C@@H](C)N(Cc2ccccc2)C[C@H]1C, O=C(CC1C(=O)NCCN1Cc1cccc(F)c1F)NCCCC1CCCC1 (stereo unspecified), O=C(C[C@H]1C=C[C@H](NC(=O)c2ccccc2)[C@H](CO)O1)NCCc1ccncc1, COc1cccc(NC(=O)CC(=O)c2ccc([N+](=O)[O-])cc2)c1, O=[N+]([O-])c1ccc(S(=O)(=O)N2CCC3(CC2)OCCN3S(=O)(=O)c2cccs2)cc1, Cc1onc(-c2ccc(Cl)cc2Cl)c1-c1csc(N/N=C/c2ccccc2Cl)n1, COC(=O)C[C@H]1CC[C@@H]2[C@H](COc3ccc(NC(=O)c4cnccn4)cc3C(=O)N2C)O1, O=C(O)c1ccc(N2C(=O)CC(N3CCN(c4cccc(C(F)(F)F)c4)CC3)C2=O)cc1 (stereo unspecified), CO[C@H]1CN(C)C(=O)c2ccc(NC(=O)C3CC3)cc2OC[C@@H](C)N(CC2CCOCC2)C[C@@H]1C, O=C(NCC(c1ccco1)N1CCc2ccccc21)c1ccc([N+](=O)[O-])cc1 (stereo unspecified), O=C(Nc1ccc(C(=O)N2CCCC2)cc1)c1ccc2c(c1)OCO2, O=C(Nc1ccccc1)c1nc[nH]c1C(=O)Nc1ccccc1F, O=c1[nH]c2ccc(F)cc2[nH]c1=O, O=C(O)c1ccc(NS(=O)(=O)/C=C/c2ccccc2)cc1O, CCC(NS(=O)(=O)c1ccc(C)cc1)C(=O)N1CCOCCOCCOCC1 (stereo unspecified), COc1ccc(OC)c(N(CC(=O)Nc2ccccc2)S(C)(=O)=O)c1, CCC(=O)N1CCC1(C)C(=O)Nc1ccc2c(c1)CCN2C(C)=O (stereo unspecified), C[C@H]1CN([C@@H](C)CO)C(=O)CCCn2cc(nn2)CO[C@@H]1CN(C)C(=O)CCC(F)(F)F, COc1ccc2cc(C(c3nnnn3C3CCCC3)N3CCc4ccccc4C3)c(=O)[nH]c2c1 (stereo unspecified), O=C(NNS(=O)(=O)c1ccc(F)cc1)c1ccccc1F, O=C(O)c1cc([N+](=O)[O-])cc([N+](=O)[O-])c1N1CCN(c2cccc(C(F)(F)F)c2)CC1, Fc1cccc(Nc2nc(-c3ccncc3)nc3ccccc23)c1, CCOC(=O)CC1C(=O)NCCN1S(=O)(=O)c1cccc(C(F)(F)F)c1 (stereo unspecified), COc1cc2ccccc2cc1C(=O)N(CCN(C)C)c1nc2c(F)cc(F)cc2s1, CO[C@@H]1CN(C)C(=O)c2ccc(NC(=O)C3CC3)cc2OC[C@@H](C)N(Cc2ccccc2)C[C@H]1C, O=C(N/N=C/c1ccc([N+](=O)[O-])o1)c1ccccc1NS(=O)(=O)c1cccs1, CCN(CC)CCN(CC)Cc1ccccc1Br, O=C(NCC1COc2ccccc2O1)c1ccc(F)c(S(=O)(=O)N2CCOCC2)c1 (stereo unspecified), O=C(N/N=C/C1CC=CCC1)c1ccc(Cl)cc1O (stereo unspecified), COc1cc2[nH]c(Cl)c([N+](=O)[O-])c2cc1OC, O=C1Nc2cc(Cl)cnc2N2CCCC12 (stereo unspecified), CO[C@@H]1CN(C)C(=O)c2ccc(NC(=O)c3ccccc3)cc2OC[C@H](C)N(C(=O)C2CC2)C[C@@H]1C, O=C(Nc1cc(Cl)cc(Cl)c1)c1coc(=O)c(Br)c1, COc1ccc(N2CCN(C(=O)CCNS(=O)(=O)c3ccc(C)cc3)CC2)cc1, Clc1cccc(-c2nn3c(Cn4cnc5ccccc54)nnc3s2)c1, O=C1CC(N2CCSCC2)C(=O)N1c1cccc(Cl)c1 (stereo unspecified), O=C(N/N=C/c1ccc[nH]1)c1ccccc1O
